Experimental findings from patent US11566039B2, “Lincosamide antibiotics and uses thereof” (President and Fellows of Harvard College, priority 2017, dated 2023) are described below.

Molecules are shown by their SMILES. Values after ≈ are worked out from the molar mass of the structure shown.

Type in all cases: cell-based
Assay [1] concerns E. coli MP-9 ΔTolC. Nature of the assay: MIC against E. coli MP-9 ΔTolC. The note with it: Escherichia coli.
Assay [2] relates to S. aureus ATCC 29213. Nature of the assay: MIC against S. aureus ATCC 29213. The settings on record: Staphylococcus aureus, ATCC29213, S. aureus ATCC 29213; read-out: MIC.
Assay [3] has as its system E. faecalis ATCC 29212. Nature of the assay: MIC against E. faecalis ATCC 29212. The settings on record: Enterococcus faecalis, ATCC29212, E. faecalis ATCC 29212; read-out: MIC.
The test system of assay [4] is K. pneumoniae ATCC 10031. Nature of the assay: MIC against K. pneumoniae ATCC 10031. The settings on record: Klebsiella pneumoniae, ATCC10031, read-out: MIC.
Assay [5] has as its system S. pneumoniae ATCC 49619. In words: MIC against S. pneumoniae ATCC 49619. The note with it: Streptococcus pneumoniae, ATCC49619, S. pneumoniae ATCC 49619; read-out: MIC.
Assay [6] relates to S. aureus BAA 977 iErmA. In words: MIC against S. aureus BAA 977 iErmA. The settings on record: Staphylococcus aureus, BAA977.
The subject of assay [7] is E. coli ATCC 25922. Nature of the assay: MIC against E. coli ATCC 25922. The note with it: Escherichia coli, ATCC25922, read-out: MIC.
Assay [8] has as its system S. pyogenes ATCC 19615. In words: MIC against S. pyogenes ATCC 19615. The note with it: Streptococcus pyogenes, ATCC19615, S. pyogenes ATCC 19615; read-out: MIC.
In assay [9] the test system is C. difficile BAA 1805. In words: MIC against C. difficile BAA 1805. The note with it: Clostridioides difficile, BAA1805.
For assay [10], the system named is H. influenzae ATCC 49247. In words: MIC against H. influenzae ATCC 49247. The settings on record: Haemophilus influenzae, ATCC49247, H. influenzae ATCC 49247; read-out: MIC.
Assay [11] has as its system S. aureus MP-549 msr(a) USA 300. In words: MIC against S. aureus MP-549 msr(a) USA 300. The note with it: Staphylococcus aureus, USA300, S. aureus MP-549 msr(a) USA 300.
In assay [12] the test system is E. coli MP-74 LptD mutant. In words: MIC against E. coli MP-74 LptD mutant. The settings on record: Escherichia coli.

As to `CCC[C@@H]1C[C@@H](C(=O)N[C@H]([C@H](C)NCc2ccc(F)cc2)[C@H]2OC(SC)[C@H](O)C(O)C2O)N(C)C1` (stereo partly drawn) [FSA-215025d], the MIC was over 64 µg/mL in assay [1]; 4 µg/mL (≈ 7.79 µM) in assay [2]; over 64 µg/mL in assay [3]; over 64 µg/mL in [4]; 2 µg/mL (≈ 3.89 µM) in [5]; 4 µg/mL (≈ 7.79 µM) in assay [6]. Besides, the MIC in assay [7] was over 64 µg/mL; in [8], 1 µg/mL (≈ 1.95 µM).
With `CCC[C@@H]1C[C@@H](C(=O)N[C@H]([C@H](C)NC2CC2)[C@H]2OC(SC)[C@H](O)C(O)C2O)N(C)C1` (stereo partly drawn) [FSA-215028c], the MIC was over 64 µg/mL in assay [1]; 64 µg/mL (≈ 144 µM) in assay [2]; over 64 µg/mL in [3]; over 64 µg/mL in [4]; 16 µg/mL (≈ 35.9 µM) in [5]; 32 µg/mL (≈ 71.8 µM) in assay [6]. Besides, the MIC in assay [7] was over 64 µg/mL; in [8], 8 µg/mL (≈ 18 µM).
Consider `C=C[C@@H](NC(=O)[C@@H]1C[C@@H](CCC)CN1C)[C@H]1OC(SC)[C@H](O)C(O)C1O` (stereo partly drawn) [FSA-215031], for which the MIC in assay [1] is over 64 µg/mL; in assay [2], 8 µg/mL (≈ 20.6 µM); in assay [3], 32 µg/mL (≈ 82.4 µM); in assay [4], over 64 µg/mL; in assay [5], 2 µg/mL (≈ 5.15 µM); in assay [6], 8 µg/mL (≈ 20.6 µM). The MIC in assay [7] was over 64 µg/mL; in assay [8], 2 µg/mL (≈ 5.15 µM).
As for `CCC[C@@H]1C[C@@H](C(=O)N[C@H](COC(=O)Nc2ccccc2)[C@H]2OC(SC)[C@H](O)C(O)C2O)N(C)C1` (stereo partly drawn) [FSA-215036], the MIC in assay [1] was over 64 µg/mL; in assay [2], over 64 µg/mL; in [3], over 64 µg/mL; in assay [4], over 64 µg/mL; in [5] it was 16 µg/mL (≈ 31.3 µM); in assay [6], over 64 µg/mL. The MIC in [7] was over 64 µg/mL; in assay [8], 64 µg/mL (≈ 125 µM).
In the case of `CCC[C@@H]1C[C@@H](C(=O)N[C@H]([C@H](C)N=[N+]=[N-])[C@H]2OC(SC)[C@H](O)C(O)C2O)N(C)C1` (stereo partly drawn) [FSA-215038, 7-(S)-deoxyazidolincomycin], the MIC in assay [1] was over 64 µg/mL; in assay [2] it was 0.25 µg/mL (≈ 0.579 µM); in assay [3] it was 32 µg/mL (≈ 74.1 µM); in assay [4], over 64 µg/mL; in [5], 0.25 µg/mL (≈ 0.579 µM); in assay [6] it was 0.5 µg/mL (≈ 1.16 µM). The MIC in assay [7] is over 64 µg/mL; in assay [8] it was 0.125 µg/mL (≈ 0.29 µM).
As to `CCC[C@@H]1C[C@@H](C(=O)N[C@H]([C@H](C)N)[C@H]2OC(SC)[C@H](O)C(O)C2O)N(C)C1` (stereo partly drawn) [FSA-215049, 7-(S)-deoxyaminolincomycin], the MIC in assay [1] is over 64 µg/mL; in assay [2] it was 64 µg/mL (≈ 158 µM); in assay [3], over 64 µg/mL; in assay [4] it was over 64 µg/mL; in [5], 8 µg/mL (≈ 19.7 µM); in [9], over 64 µg/mL. Besides, the MIC in [10] was over 64 µg/mL; in [6], 64 µg/mL (≈ 158 µM); in [11], 32 µg/mL (≈ 78.9 µM); in [12], over 64 µg/mL; in [7], over 64 µg/mL; in [8] it was 16 µg/mL (≈ 39.5 µM).
As to `CCC[C@@H]1C[C@@H](C(=O)N[C@H]([C@H](C)NC(=O)CCCN)[C@H]2OC(SC)[C@H](O)C(O)C2O)N(C)C1` (stereo partly drawn) [FSA-215052], the MIC in [1], in assay [2], in assay [3], in [4], in assay [5] and in [6] was over 64 µg/mL each time. Besides, the MIC is over 64 µg/mL in [7] and 32 µg/mL (≈ 65.2 µM) in [8].
For the compound `CCC[C@@H]1C[C@@H](C(=O)N[C@H]([C@H](C)NC(=O)CCN)[C@H]2OC(SC)[C@H](O)C(O)C2O)N(C)C1` (stereo partly drawn) [FSA-215054], the MIC in assay [1], in [2], in assay [3], in assay [4], in assay [5] and in [6] was over 64 µg/mL throughout. Besides, the MIC in assay [7] is over 64 µg/mL; in assay [8], 64 µg/mL (≈ 134 µM).
Regarding `CCC[C@@H]1C[C@@H](C(=O)N[C@H]([C@H](C)NC(=N)N)[C@H]2OC(SC)[C@H](O)C(O)C2O)N(C)C1` (stereo partly drawn) [FSA-215059], the MIC was over 64 µg/mL in assay [1]; 32 µg/mL (≈ 71.5 µM) in assay [2]; over 64 µg/mL in assay [3]; over 64 µg/mL in assay [4]; 8 µg/mL (≈ 17.9 µM) in assay [5]; 32 µg/mL (≈ 71.5 µM) in [6]. Also, the MIC in [12] is over 64 µg/mL; in assay [7], over 64 µg/mL; in assay [8], 4 µg/mL (≈ 8.94 µM).
Regarding `CCC[C@@H]1C[C@@H](C(=O)N[C@@H]([C@H]2OC(SC)[C@H](O)C(O)C2O)[C@H](C)n2ccnc2)N(C)C1` (stereo partly drawn) [FSA-215064], the MIC in assay [1] was over 64 µg/mL; in assay [2] it was 64 µg/mL (≈ 140 µM); in assay [3], over 64 µg/mL; in [4], over 64 µg/mL; in assay [5], 16 µg/mL (≈ 35 µM); in assay [6] it was over 64 µg/mL. The MIC in assay [12] was over 64 µg/mL; in assay [7] it was over 64 µg/mL; in assay [8], 8 µg/mL (≈ 17.5 µM).
In the case of `CCC[C@@H]1C[C@@H](C(=O)N[C@@H]([C@H]2OC(SC)[C@H](O)C(O)C2O)[C@H](C)N(C)C)N(C)C1` (stereo partly drawn) [FSA-215070], the MIC in assay [1] was over 64 µg/mL; in [2], 64 µg/mL (≈ 148 µM); in assay [3], over 64 µg/mL; in assay [4], over 64 µg/mL; in [5], 16 µg/mL (≈ 36.9 µM); in [9], over 64 µg/mL. For the same compound, the MIC in [10] was over 64 µg/mL; in [6], 64 µg/mL (≈ 148 µM); in assay [11], 64 µg/mL (≈ 148 µM); in assay [12], over 64 µg/mL; in assay [7], over 64 µg/mL; in assay [8], 32 µg/mL (≈ 73.8 µM).
`CCC[C@@H]1C[C@@H](C(=O)N[C@@H]([C@H]2OC(SC)[C@H](O)C(O)C2O)[C@H](C)n2cc(CN)nn2)N(C)C1` (stereo partly drawn) [FSA-215072]: the MIC is over 64 µg/mL in assay [1]; over 64 µg/mL in assay [2]; over 64 µg/mL in [3]; over 64 µg/mL in assay [4]; 8 µg/mL (≈ 16.4 µM) in assay [5]; over 64 µg/mL in assay [6]. Further, the results for the MIC in assay [12], in assay [7] and in [8] were over 64 µg/mL, over 64 µg/mL and 8 µg/mL (≈ 16.4 µM), respectively.
Turning to `CCC[C@@H]1C[C@@H](C(=O)N[C@H](CN)[C@H]2OC(SC)[C@H](O)C(O)C2O)N(C)C1` (stereo partly drawn) [FSA-215077], the MIC in assay [1], in assay [2], in assay [3], in assay [4], in assay [5] and in assay [10] was over 64 µg/mL in each case. The MIC in assay [6], in [11], in [12], in assay [7] and in assay [8] was over 64 µg/mL in each case.
With `CCC[C@@H]1C[C@@H](C(=O)N[C@@H]([C@H]2OC(SC)[C@H](O)C(O)C2O)[C@H](C)N(C)Cc2ccccc2[N+](=O)[O-])N(C)C1` (stereo partly drawn) [FSA-215081], the MIC is over 64 µg/mL in assay [1]; 4 µg/mL (≈ 7.21 µM) in [2]; over 64 µg/mL in [3]; over 64 µg/mL in assay [4]; 2 µg/mL (≈ 3.61 µM) in assay [5]; over 64 µg/mL in assay [10]. In addition, the MIC in [6] is 4 µg/mL (≈ 7.21 µM); in assay [11], 4 µg/mL (≈ 7.21 µM); in assay [12] it was over 64 µg/mL; in [7], over 64 µg/mL; in assay [8], 1 µg/mL (≈ 1.8 µM).
